Test system: 596521-263-R-J1-PDC complex spheroids, viability % of control
Assay: Anticancer human tumor 596521-263-R-J1-PDC patient-derived soft tissue sarcoma cell line growth inhibition [GQUAD]
Details: for IC50: curve of first compound; for viability, T/C: stronger effect = lower value
Summary of the method: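 Multi-cell-type spheroids of tumor cells with HUVEC and mesenchymal stem cells, treated with drug combinations. Concentrations descend in half-log steps from near clinical Cmax, or from 10 microM where Cmax is unknown; viability read-out.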

[1] = second compound 0.0316 µM, first compound 0.0316 µM
[2] = second compound 0.0316 µM, first compound 0.1 µM
[3] = second compound 0.0316 µM, first compound 0.316 µM
[4] = second compound 0.0316 µM, first compound 1 µM
[5] = second compound 0.0316 µM, first compound 3.16 µM
[6] = second compound 0.0316 µM, first compound 10 µM
[7] = second compound 0.1 µM, first compound 0.0316 µM
[8] = second compound 0.1 µM, first compound 0.1 µM
[9] = second compound 0.1 µM, first compound 0.316 µM
[10] = second compound 0.1 µM, first compound 1 µM
[11] = second compound 0.1 µM, first compound 3.16 µM
[12] = second compound 0.1 µM, first compound 10 µM
[13] = second compound 0.316 µM, first compound 0.0316 µM
[14] = second compound 0.316 µM, first compound 0.1 µM
[15] = second compound 0.316 µM, first compound 0.316 µM
[16] = second compound 0.316 µM, first compound 1 µM
[17] = second compound 0.316 µM, first compound 3.16 µM
[18] = second compound 0.316 µM, first compound 10 µM
[19] = second compound 1 µM, first compound 0.0316 µM
[20] = second compound 1 µM, first compound 0.1 µM
[21] = second compound 1 µM, first compound 0.316 µM
[22] = second compound 1 µM, first compound 1 µM
[23] = second compound 1 µM, first compound 3.16 µM
[24] = second compound 1 µM, first compound 10 µM
[25] = second compound 3.16 µM, first compound 0.0316 µM
[26] = second compound 3.16 µM, first compound 0.1 µM
[27] = second compound 3.16 µM, first compound 0.316 µM
[28] = second compound 3.16 µM, first compound 1 µM
[29] = second compound 3.16 µM, first compound 3.16 µM
[30] = second compound 3.16 µM, first compound 10 µM
[31] = second compound 10 µM, first compound 0.0316 µM
[32] = second compound 10 µM, first compound 0.1 µM
[33] = second compound 10 µM, first compound 0.316 µM
[34] = second compound 10 µM, first compound 1 µM
[35] = second compound 10 µM, first compound 3.16 µM
[36] = second compound 10 µM, first compound 10 µM
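Further: spheroids exposed to drugs for 7 days before viability reading.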
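Wherever viability, T/C is given: 100% = DMSO vehicle control viability.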

Work on `CC(=O)O[C@H]1C(=O)[C@@]2(C)[C@H]([C@H](OC(=O)c3ccccc3)[C@]3(O)C[C@H](OC(=O)[C@H](O)[C@@H](NC(=O)c4ccccc4)c4ccccc4)C(C)=C1C3(C)C)[C@]1(OC(C)=O)CO[C@@H]1C[C@@H]2O` + Cc1cnc(CNC(=O)c2c(=O)c3ccc(N4CCCN(C)CC4)nc3n3c2sc2ccccc23)cn1 yielded an IC50 (second compound 0.0316 µM) of less than 0.0316 µM, an IC50 (second compound 0.1 µM) of less than 0.0316 µM and an IC50 (second compound 0.316 µM) of less than 0.0316 µM. It also gave an IC50 (second compound 1 µM) of less than 0.0316 µM, an IC50 (second compound 3.16 µM) of less than 0.0316 µM and an IC50 (second compound 10 µM) of less than 0.0316 µM. For the same compound, the viability, T/C [1] was 44%, the viability, T/C [2] was 30.7% and the viability, T/C [3] was 23.5%. For the same compound, the viability, T/C [4] was 27.8%, the viability, T/C [5] was 25.9% and the viability, T/C [6] was 28%. The viability, T/C [7] was 43.7%, the viability, T/C [8] was 25.2% and the viability, T/C [9] was 28.9%. The viability, T/C [10] was 28.8%, the viability, T/C [11] was 29.3% and the viability, T/C [12] was 28.9%. It also gave a viability, T/C [13] of 38.5%, a viability, T/C [14] of 30.4% and a viability, T/C [15] of 25.1%. It also gave a viability, T/C [16] of 28.1%, a viability, T/C [17] of 29% and a viability, T/C [18] of 30.8%. It also gave a viability, T/C [19] of 36.5%, a viability, T/C [20] of 32.5% and a viability, T/C [21] of 28.5%. For the same compound, the viability, T/C [22] was 27.9%, the viability, T/C [23] was 27.7% and the viability, T/C [24] was 31.1%. For the same compound, the viability, T/C [25] was 35.4%, the viability, T/C [26] was 28.1% and the viability, T/C [27] was 24.5%. It also gave a viability, T/C [28] of 25.5%, a viability, T/C [29] of 27.6% and a viability, T/C [30] of 32.2%. The viability, T/C [31] was 7.69%, the viability, T/C [32] was 8.44% and the viability, T/C [33] was 7.94%. It also gave a viability, T/C [34] of 7.65%, a viability, T/C [35] of 0.28% and a viability, T/C [36] of 0.22%.

`CC(C)(O)C1CCC(Nc2ccc3ncc(-c4cccc(C(F)(F)F)c4)n3n2)CC1` (stereo unspecified) + Cc1cnc(CNC(=O)c2c(=O)c3ccc(N4CCCN(C)CC4)nc3n3c2sc2ccccc23)cn1 showed an IC50 (second compound 0.0316 µM) of 1.72 µM, an IC50 (second compound 0.1 µM) of 1.32 µM and an IC50 (second compound 0.316 µM) of 1.01 µM. It also gave an IC50 (second compound 1 µM) of 0.83 µM, an IC50 (second compound 3.16 µM) of less than 0.0316 µM and an IC50 (second compound 10 µM) of less than 0.0316 µM. It also gave a viability, T/C [1] of 89.8%, a viability, T/C [2] of 82.3% and a viability, T/C [3] of 88.3%. For the same compound, the viability, T/C [4] was 77.7%, the viability, T/C [5] was 18.8% and the viability, T/C [6] was 14.4%. For the same compound, the viability, T/C [7] was 81.9%, the viability, T/C [8] was 79.9% and the viability, T/C [9] was 74.2%. For the same compound, the viability, T/C [10] was 59.5%, the viability, T/C [11] was 20.5% and the viability, T/C [12] was 18.2%. For the same compound, the viability, T/C [13] was 72.3%, the viability, T/C [14] was 69.5% and the viability, T/C [15] was 68.6%. For the same compound, the viability, T/C [16] was 50.5%, the viability, T/C [17] was 18.4% and the viability, T/C [18] was 15.9%. The viability, T/C [19] was 57.6%, the viability, T/C [20] was 53.6% and the viability, T/C [21] was 63.1%. The viability, T/C [22] was 47.8%, the viability, T/C [23] was 21.7% and the viability, T/C [24] was 15.1%. The viability, T/C [25] was 46.6%, the viability, T/C [26] was 46.5% and the viability, T/C [27] was 51.7%. The viability, T/C [28] was 45.2%, the viability, T/C [29] was 0.12% and the viability, T/C [30] was 0.13%. The viability, T/C [31] was 33.3%, the viability, T/C [32] was 13.8% and the viability, T/C [33] was 41.2%. For the same compound, the viability, T/C [34] was 0.19%, the viability, T/C [35] was 0.23% and the viability, T/C [36] was 0.18%.

In the case of `CCCS(=O)(=O)Nc1ccc(F)c(C(=O)c2c[nH]c3ncc(-c4ccc(Cl)cc4)cc23)c1F` + Cc1cnc(CNC(=O)c2c(=O)c3ccc(N4CCCN(C)CC4)nc3n3c2sc2ccccc23)cn1, the IC50 (second compound 0.0316 µM) is reported as 8.29 µM, the IC50 (second compound 0.1 µM) is reported as 7.34 µM and the IC50 (second compound 0.316 µM) is reported as 6.68 µM. It also gave an IC50 (second compound 1 µM) of 5.02 µM, an IC50 (second compound 3.16 µM) of 4.25 µM and an IC50 (second compound 10 µM) of less than 0.0316 µM. It also gave a viability, T/C [1] of 100%, a viability, T/C [2] of 90.1% and a viability, T/C [3] of 98.1%. For the same compound, the viability, T/C [4] was 97.5%, the viability, T/C [5] was 78.5% and the viability, T/C [6] was 44.4%. It also gave a viability, T/C [7] of 90.6%, a viability, T/C [8] of 85.5% and a viability, T/C [9] of 95.7%. It also gave a viability, T/C [10] of 79.4%, a viability, T/C [11] of 83.6% and a viability, T/C [12] of 37.5%. For the same compound, the viability, T/C [13] was 81.2%, the viability, T/C [14] was 84.6% and the viability, T/C [15] was 80.1%. The viability, T/C [16] was 71.7%, the viability, T/C [17] was 71.3% and the viability, T/C [18] was 39.5%. For the same compound, the viability, T/C [19] was 64.2%, the viability, T/C [20] was 65.8% and the viability, T/C [21] was 67%. For the same compound, the viability, T/C [22] was 61.5%, the viability, T/C [23] was 53.3% and the viability, T/C [24] was 43.1%. The viability, T/C [25] was 57%, the viability, T/C [26] was 50.3% and the viability, T/C [27] was 62.8%. It also gave a viability, T/C [28] of 52%, a viability, T/C [29] of 55.2% and a viability, T/C [30] of 35.8%. It also gave a viability, T/C [31] of 46.5%, a viability, T/C [32] of 27.8% and a viability, T/C [33] of 50.4%. The viability, T/C [34] was 46.1%, the viability, T/C [35] was 24.7% and the viability, T/C [36] was 0.21%.

— PubChem BioAssay AID2060500 (Molecular Pharmacology Branch, DTP, NCI, 2025)
